# Results reported in PubChem BioAssay (NCI).
#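 Each compound was tested at five concentrations against cells in 96-well plates for 48 hours. TGI: concentration producing complete growth inhibition.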
# How the values were obtained:
# Assay in all cases: inhibition of tumour cell growth, NCI panel, 48 h
# UACC-62 melanoma = tested on: UACC-62 melanoma
# HOP-62 NSCLC = tested on: HOP-62 NSCLC
# HCT-116 colon = tested on: HCT-116 colon
# OVCAR-3 ovarian = tested on: OVCAR-3 ovarian
# NCI/ADR-RES ovarian = tested on: NCI/ADR-RES ovarian
# HS 578T breast = tested on: HS 578T breast
# DU-145 prostate = tested on: DU-145 prostate
# LOX IMVI melanoma = tested on: LOX IMVI melanoma
# SF-268 CNS = tested on: SF-268 CNS
# PC-3 prostate = tested on: PC-3 prostate
SMILES,TGI (UACC-62 melanoma) [µM],TGI (HOP-62 NSCLC) [µM],TGI (HCT-116 colon) [µM],TGI (OVCAR-3 ovarian) [µM],TGI (NCI/ADR-RES ovarian) [µM],TGI (HS 578T breast) [µM],TGI (DU-145 prostate) [µM],TGI (LOX IMVI melanoma) [µM],TGI (SF-268 CNS) [µM],TGI (PC-3 prostate) [µM]
COC(=O)C1=C(C(=O)OC)SC2(S1)C(C(=O)OC)=C(C(=O)OC)Sc1c2ssc1=O,1.37,4.53,1.78,2.38,2.82,13.4,2.33,0.817,10.3,3.75
O=S1(=O)OCCOS(=O)(=O)C1C1c2ccccc2-c2ccccc21,> 100,> 100,> 100,> 100,85.1,> 100,> 100,89,> 100,> 100
Clc1ccc(CCNCCNC2(c3cc4ccccc4s3)CCCCC2)cc1Cl,3.11,2.6,3.26,2.91,3.47,4.52,3.88,3.36,3.37,3.11
O=C1C(Nc2ccc(S(=O)(=O)Nc3cnc4ccccc4n3)cc2)=CC(=Nc2ccc(S(=O)(=O)Nc3cnc4ccccc4n3)cc2)c2ccccc21,33.6,34.8,32.9,47.6,> 100,> 100,30.7,30.7,38.2,52.9
COc1ccc2cc(CNCCOCCOCCNCc3ccc4cc(OC)ccc4c3)ccc2c1,3.38,3.87,7.86,3.54,3.02,3.46,3.15,1.22,2.99,3.16
C1=Nc2ccc(cc2)-c2ccc(cc2)N=Cc2ccccc2OCc2cccc(n2)COc2ccccc21,> 100,20.1,> 100,> 100,> 100,47,> 100,> 100,> 100,> 100
Cc1cc2nc3c(C)c4ccccc4c(C)n3c2cc1C,> 10,> 10,3.96,7.8,8.41,> 10,> 10,3.61,> 10,> 10
COc1ccc(C2=Nn3c(nc4sc5c(c4c3=O)CCCC5)SC2)cc1,> 100,> 100,> 100,> 100,> 100,> 100,> 100,> 100,> 100,> 100
CCOC(=O)C1=C(C)NC(c2ccccc2)=C(C(=O)OCc2ccccc2)C1C#Cc1ccccc1 (stereo not drawn),> 100,> 100,> 100,> 100,> 100,> 100,> 100,> 100,> 100,> 100
CN1CN(c2ccccc2)C2(CCN(C(=O)OC(C)(C)C)CC2)C1=O,> 100,> 100,> 100,> 100,> 100,> 100,> 100,> 100,> 100,> 100
Cn1c(SCc2ccc([N+](=O)[O-])cc2)nnc1C12CC3CC(CC(C3)C1)C2,> 10,> 10,> 10,> 10,> 10,> 10,> 10,> 10,> 10,> 10
Cc1ccnc2[nH]c(-c3ccc(Cl)cc3)cc(=O)c12,> 100,> 93.5,> 100,99.1,> 100,> 100,> 100,> 100,> 100,> 100
O=c1oc2c(Cl)cc(Cl)cc2cc1-c1cn2c(n1)sc1ccccc12,> 100,> 100,> 100,> 100,> 100,> 100,> 100,> 100,> 100,> 100
CCc1c[n+]2c(cc1C1=CN3c4ccccc4[C@]45CCN6C/C(=C/CO)[C@H](C[C@H]64)[C@@H]([C@@H]1O)[C@H]35)-c1[nH]c3ccccc3c1CC2,> 50,> 50,> 50,> 50,> 50,> 50,> 50,> 50,> 50,> 50
Nc1nc(Cl)cc(Oc2ccc(Cl)cc2)n1,> 100,> 100,> 100,> 100,> 100,> 100,> 100,> 100,> 100,> 100
C#CCn1c(=O)c2cc(OC)c(OC)cc2n(CC#C)c1=O,,> 10,> 10,> 10,> 10,> 10,> 10,> 10,> 10,> 10
Clc1cccc(C=NC23CC4CC(CC(C4)C2)C3)c1Cl,> 10,> 10,> 10,> 10,> 10,> 10,> 10,> 10,> 10,> 10
C=C1C(O)C2OC(=O)C(=C)C2C(OC(=O)/C(C)=C/C)CC2(C)OC2C2OC12 (stereo not drawn),48.2,> 100,> 100,26.2,> 100,> 100,> 100,29.7,> 100,54.4
COc1cc(/C=[N+](\[O-])c2ccccc2Cl)ccc1OC(=S)S,99.7,> 100,> 100,> 100,76.4,> 100,> 100,> 100,> 100,> 100
CCOC(=O)/C(C(N)=O)=C(/O)c1cnccn1,> 100,,> 100,> 100,> 100,> 100,> 100,> 100,> 100,> 100
